Read-outs that look alike come from different tables or passages of the source.
How the values were obtained:
IGROV1 = assay: NCI-60 growth inhibition, IGROV1; type: cell-based, human
Description: (§1) The anticancer effects of compounds 1a-1b against 60 human cancer cell lines (the Developmental Therapeutics Program of NCI) were studied. The cell lines were derived from different cancer types including leukemia, non-small-cell lung cancer, colon cancer, CNS cancer, melanoma, ovarian cancer, renal cancer, prostate cancer, and breast cancer (Table 1; the assay protocol can be found at: https://dtp.cancer.gov/default.htm). Compound 1a caused over 50% growth inhibition for most tested cell lines. […] Without wishing to be bound by any particular theory, it is believed that the differences in the anticancer effects between compounds 1a and 1b may be due to the more favorable cell membrane permeability of the boronic ester 1a.

M14 = assay: NCI-60 growth inhibition, M14; type: cell-based, human
Description: as §1

PC-3 = assay: NCI-60 growth inhibition, PC-3; type: cell-based, human
Description: as §1

NCI-H226 = assay: NCI-60 growth inhibition, NCI-H226; type: cell-based, human
Description: as §1

CAKI-1 = assay: NCI-60 growth inhibition, CAKI-1; type: cell-based, human
Description: as §1

A498 = assay: NCI-60 growth inhibition, A498; type: cell-based, human
Description: as §1

OVCAR-3 = assay: NCI-60 growth inhibition, OVCAR-3; type: cell-based, human
Description: as §1

RPMI-8226 = assay: NCI-60 growth inhibition, RPMI-8226; type: cell-based, human
Description: as §1

NCI/ADR-RES = assay: NCI-60 growth inhibition, NCI/ADR-RES; type: cell-based, human; conditions: Ovarian Cancer NCI/ADR-RES, 48 h
Description: as §1

SF-539 = assay: NCI-60 growth inhibition, SF-539; type: cell-based, human
Description: as §1

NCI-H23 = assay: NCI-60 growth inhibition, NCI-H23; type: cell-based, human
Description: as §1

SNB-19 = assay: NCI-60 growth inhibition, SNB-19; type: cell-based, human
Description: as §1

MOLT-4 = assay: NCI-60 growth inhibition, MOLT-4; type: cell-based, human
Description: as §1

caspase 3 = assay: Western blot of caspase 3 in MCF7 cells; type: cell-based, human; conditions: 48 h; for expression level of caspase 3: compared to vehicle-treated cells; for level of cleavage of caspase 3: compared to vehicle-treated controls
Method: FIGS. 4A and 4B illustrate the effect of compounds 1a-1b in apoptosis. FIG. 4A: immunofluorescence of DNA cleavage protein γH2Ax was enhanced by using 5-FU and prodrugs 1a-1b. FIG. 4B: immunoblot analysis of MCF-7 cells treated with 5-FU, prodrugs 1a-1b for apoptosis markers PARP1 and Caspase 3. The cells were treated for 48 h with the indicated concentrations of compounds.
Western Blot Analysis. Treated cells were washed once with PBS and lysed with RIPA lysis buffer (Santa Cruz Biotechnology, SCBT, #24948) supplemented with sodium orthovanadate, PMSF, protease and phosphatase inhibitor cocktails (Sigma Aldrich). Cell lysates were centrifuge for 15 min at 14,000×g and the supernatant was used for immunoblotting. Protein concentration was normalized for the samples and resolved on a 10-13% SDS-PAGE gel. Following transfer to nitrocellulose membrane, specific mouse primary antibodies from SCBT (PARP1 #sc-8007, caspase 3 #sc-7272) and Cell Signaling (cleaved PARP1 #9541, cleaved caspase-3 #9664) were added and incubated overnight. Secondary antibodies corresponding to the host of the primary antibodies was further incubated with the membrane and washed three times to remove excess antibodies. Odyssey Fc Imaging System (LI-COR, Lincoln, Nebr.) was used to quantify the chemiluminescent of the proteins.
To understand the mechanism of action of prodrugs 1a-1b, the impact of the treatment of compounds 1a-1b on the γH2AX formation in MCF7 cells were determined using immunofluorescence assay (FIG. 4A). […] The effects of prodrugs 1a-1b on the PARP1 and caspase 3 cleavage in MCF7 cells were also determined using Western blots assays (FIG. 4B). […] Treatment of 5-FU and compounds 1a-1b increased the levels of cleavage of PARP1 and caspase 3 in MCF7 cells, as compared with that in the vehicle-treated controls. Therefore, prodrugs 1a-1b, similar to 5-FU, can induce MCF7 cell apoptosis, which might contribute to their pharmacological actions.

OVCAR-4 = assay: NCI-60 growth inhibition, OVCAR-4; type: cell-based, human
Description: as §1

NCI-H522 = assay: NCI-60 growth inhibition, NCI-H522; type: cell-based, human
Description: as §1

[1] = test system: 60 human cancer cell lines; assay: NCI-60 cellular antitumor activity profiling, panel summary; type: cell-based; conditions: 48 h; for inhibition at 50 µM: Homo sapiens
Description: as §1

RXF 393 = assay: NCI-60 growth inhibition, RXF 393; type: cell-based, human
Description: as §1

OVCAR-5 = assay: NCI-60 growth inhibition, OVCAR-5; type: cell-based, human
Description: as §1

LOX IMVI = assay: NCI-60 growth inhibition, LOX IMVI; type: cell-based, human; conditions: Melanoma LOX IMVI, 48 h
Description: as §1

U251 = assay: NCI-60 growth inhibition, U251; type: cell-based, human
Description: as §1

ACHN = assay: NCI-60 growth inhibition, ACHN; type: cell-based, human; conditions: Renal Cancer ACHN, 48 h
Description: as §1

HOP-92 = assay: NCI-60 growth inhibition, HOP-92; type: cell-based, human
Description: as §1

UACC-62 = assay: NCI-60 growth inhibition, UACC-62; type: cell-based, human
Description: as §1

In the case of `CC1(C)OB(c2ccc(Cn3cc(F)c(=O)[nH]c3=O)cc2)OC1(C)C` [Compound 1a, 5-Fluoro-1-(4-(4,4,5,5-tetramethyl-1,3,2-dioxaborolan-2-yl)benzyl)pyrimidine-2,4(1H,3H)-dione], the inhibition at 50 µM (IGROV1; Homo sapiens, IGROV-1, Ovarian Cancer IGROV1, 48 h) is reported as 56%, the inhibition at 50 µM (M14; Homo sapiens, Melanoma M14, 48 h) is reported as 55% and the inhibition at 50 µM (PC-3; Homo sapiens, Prostate Cancer PC-3, 48 h) is reported as 45%. It also gave an inhibition at 50 µM (NCI-H226; Homo sapiens, Non-Small Cell lung Cancer NCI-H226, 48 h) of 36%, an inhibition at 50 µM (CAKI-1; Homo sapiens, Renal Cancer CAKI-1, 48 h) of 25% and an inhibition at 50 µM (A498; Homo sapiens, Renal Cancer A498, 48 h) of 74%. It also gave an inhibition at 50 µM (OVCAR-3; Homo sapiens, Ovarian Cancer OVCAR-3, 48 h) of 95%, an inhibition at 50 µM (RPMI-8226; Homo sapiens, Leukemia RPMI-8226, 48 h) of 32% and an inhibition at 50 µM (NCI/ADR-RES; Homo sapiens) of 6%. For the same molecule, the inhibition at 50 µM (SF-539; Homo sapiens, CNS Cancer SF-539, 48 h) was 39%, the inhibition at 50 µM (NCI-H23; Homo sapiens, Non-Small Cell lung Cancer NCI-H23, 48 h) was 32% and the inhibition at 50 µM (SNB-19; Homo sapiens, CNS Cancer SNB-19, 48 h) was 29%. For the same molecule, the inhibition at 50 µM (MOLT-4; Homo sapiens, Leukemia MOLT-4, 48 h) was 45%, the “expression level of caspase 3” value (caspase 3) was “significantly reduced” and the “level of cleavage of caspase 3” value (caspase 3) was “increased”. It also gave an inhibition at 50 µM (OVCAR-4; Homo sapiens, Ovarian Cancer OVCAR-4, 48 h) of 30%, an inhibition at 50 µM (NCI-H522; Homo sapiens, Non-Small Cell lung Cancer NCI-H522, 48 h) of 90% and an inhibition at 50 µM ([1]; lung cancer NCI-H522, melanoma MDA-MB-435, ovarian cancer OVCAR-3, breast cancer MCF7 and MDA-MB-468 cells, read-out: most significant inhibition) of 81 to 96%. For the same molecule, the inhibition at 50 µM ([1]; most cell lines of the NCI-60 panel, read-out: growth inhibition for most tested cell lines) was greater than 50%, the inhibition at 50 µM (RXF 393; Homo sapiens, Renal Cancer RXF 393, 48 h) was 40% and the inhibition at 50 µM (OVCAR-5; Homo sapiens, Ovarian Cancer OVCAR-5, 48 h) was 30%. For the same molecule, the inhibition at 50 µM (LOX IMVI; Homo sapiens) was 47%, the inhibition at 50 µM (U251; Homo sapiens, U-251, CNS Cancer U251, 48 h) was 17% and the inhibition at 50 µM (ACHN; Homo sapiens) was 8%. The inhibition at 50 µM (HOP-92; Homo sapiens, Non-Small Cell lung Cancer HOP-92, 48 h) was 67% and the inhibition at 50 µM (UACC-62; Homo sapiens, Melanoma UACC-62, 48 h) was 71%.

`O=c1[nH]c(=O)n(Cc2ccc(B(O)O)cc2)cc1F` [Compound 1b, (4-((5-Fluoro-2,4-dioxo-3,4-dihydropyrimidin-I(2H)-yl)methyl)phenyl)boronic acid] was tested, and the “Growth Inhibition (%)” value (IGROV1; Ovarian Cancer IGROV1, 50 μM, 48 h) was 15%, the “Growth Inhibition (%)” value (M14; Melanoma M14, 50 μM, 48 h) was 17% and the “Growth Inhibition (%)” value (PC-3; Prostate Cancer PC-3, 50 μM, 48 h) was 14%. For the same molecule, the “Growth Inhibition (%)” value (NCI-H226; Non-Small Cell lung Cancer NCI-H226, 50 μM, 48 h) was 19%, the “Growth Inhibition (%)” value (CAKI-1; Renal Cancer CAKI-1, 50 μM, 48 h) was 12% and the “Growth Inhibition (%)” value (A498; Renal Cancer A498, 50 μM, 48 h) was 31%. For the same molecule, the “Growth Inhibition (%)” value (OVCAR-3; Ovarian Cancer OVCAR-3, 50 μM, 48 h) was 30%, the “Growth Inhibition (%)” value (RPMI-8226; Leukemia RPMI-8226, 50 μM, 48 h) was 2% and the “Growth Inhibition (%)” value (NCI/ADR-RES; 50 μM) was 0%. For the same molecule, the “Growth Inhibition (%)” value (SF-539; CNS Cancer SF-539, 50 μM, 48 h) was 13%, the “Growth Inhibition (%)” value (NCI-H23; Non-Small Cell lung Cancer NCI-H23, 50 μM, 48 h) was 6% and the “Growth Inhibition (%)” value (SNB-19; CNS Cancer SNB-19, 50 μM, 48 h) was 11%. For the same molecule, the “Growth Inhibition (%)” value (MOLT-4; Leukemia MOLT-4, 50 μM, 48 h) was 5%, the “expression level of caspase 3” value (caspase 3) was “significantly reduced” and the “level of cleavage of caspase 3” value (caspase 3) was “increased”. For the same molecule, the “Growth Inhibition (%)” value (OVCAR-4; Ovarian Cancer OVCAR-4, 50 μM, 48 h) was 2%, the “Growth Inhibition (%)” value (NCI-H522; Non-Small Cell lung Cancer NCI-H522, 50 μM, 48 h) was 44% and the “growth inhibition for most tested cell lines” value ([1]; most cell lines of the NCI-60 panel, 50 μM) was “less than 50%”. The “Growth Inhibition (%)” value (RXF 393; Renal Cancer RXF 393, 50 μM, 48 h) was 17%, the “Growth Inhibition (%)” value (OVCAR-5; Ovarian Cancer OVCAR-5, 50 μM, 48 h) was 19% and the “Growth Inhibition (%)” value (LOX IMVI; 50 μM) was 8%. For the same molecule, the “Growth Inhibition (%)” value (U251; CNS Cancer U251, 50 μM, 48 h) was 4%, the “Growth Inhibition (%)” value (ACHN; 50 μM) was 0% and the “Growth Inhibition (%)” value (HOP-92; Non-Small Cell lung Cancer HOP-92, 50 μM, 48 h) was 35%. The “Growth Inhibition (%)” value (UACC-62; Melanoma UACC-62, 50 μM, 48 h) was 30%.

Reference: US20220041627A1, “PRODRUGS OF ANTI-CANCER AND ANTI-AUTOIMMUNE DISEASES THERAPEUTIC AGENTS, AND METHODS OF MAKING AND USE THEREOF” (UNIVERSITY OF MARYLAND, BALTIMORE, priority 2018, published 2022)
